# Assay results taken from US7638486B2, “Method for promoting hard tissue formation” (Acologix, Inc., priority 2005, dated 2009).
# Legend:
# [1] = system: hard tissue forming cells; assay: Biological activities for the purpose of the invention (test not specified)
# [2] = system: COX-2 mRNA; conditions: Nagel et al., Journal of Cellular Biochemistry, 2004; cited from earlier work
# [3] = system: COX-2 mRNA; assay: Gene expression microarray analysis in Clonetics hMSC cells; format: cell-based, human; conditions: peptide 1000 ng/ml
# Method: Materials and Methods: The effect of the peptide of SEQ ID No. 8 treatment on gene expression was assessed in the Clonetics hMSC cells using gene expression microarray analysis as previously described (Locklin et al., 2001). Briefly, cells were plated in five T-150 vented flasks at a density of 1.0×10^6 cells per flask in growth medium and cultured at 37° C. for 48 hours. Flasks containing either vehicle alone or the peptide of SEQ ID No. 8 (1000 ng/ml) were cultured for 24 hr or for 48 h in standard differentiation medium. At each time point, the vehicle and treatment flasks were trypsinized, cells removed and total RNA was extracted for analysis via the Qiagen Rneasy Kit (Qiagen). 8 μg of total RNA were amplified and biotin labeled. The mixture was hybridized to a U95A human gene expression microarray (Affymetrix) containing probes for 12,600 human genes. The chips were then washed, stained with phycoerythrin-streptavidin and read with an Affymetrix scanner. Hybridization intensity values to mRNA frequency were calculated in molecules per million. Analysis of intensity values was conducted using Spotfire Decision Site (Somerville, Mass.) software.
# [4] = system: MC3T3-E1 subclone 4 cells; assay: BMP-2 stimulated PGE2 production by MC3T3 cells (ELISA); format: cell-based, mouse; conditions: 24 hours, with BMP-2
# Method: Methods: MC3T3-E1 subclone 4 cells are neonatal mouse derived calvarial preosteoblasts with fibroblast morphology. […] For this experiment the MC3T3 cells were plated 10^5 cells per well in 24 well plates in growth medium (alpha MEM+1 mM sodium pyruvate+10% fetal bovine serum (FBS)). After 24 hours of culture the media was removed and replaced with assay media (alphaMEM+1 mM sodium pyruvate+2% FBS) containing the test substances. Each test group utilized 4 wells. After incubation for a further 24 hours the media was removed and the levels of PGE2 were determined using an ELISA (R&D Systems).
# [5] = system: primary osteoblasts collected from fetal mouse calvaria; assay: Alkaline phosphatase (ALP) activity in primary osteoblasts under suboptimal BMP-2; format: cell-based
# Method: The peptide of SEQ ID No. 8 was added to this culture system at 0, 0.2, 0.4, 1.0, 2.0, and 4.0 μM. The levels of ALP were evaluated on days 0, 3, and 7.
# [6] = system: human mesenchymal cells; assay: PGE2 in human mesenchymal cells in culture; format: cell-based; conditions: peptide alone
# [7] = system: hemi-calvariae; conditions: Middleton-Hardie et al., ASBMR 2005; cited from earlier work
# [8] = system: dorsal muscle of mice; assay: Ectopic bone formation in mouse dorsal muscle with implanted polymer; format: in vivo, ICR mice
# Excerpt: It has been known that BMP causes bone formation when administered or implanted in mammals when given. The activity can be enhanced when given in the appropriate delivery vehicle.
# The mice were sacrificed 3 weeks later and the newly formed bones were isolated for evaluation using soft X-ray radiograph and bone mineral density determination.
# [9] = system: hemi-calvariae; assay: Mouse calvaria organ culture assay (PGE2 ELISA, histology); format: cell-based, Swiss Webster mice; conditions: peptide 1, 10, 100 μg/mL daily for seven days
# Excerpt: Methods: Calvarial organ cultures have been used for many years to study the regulation of bone formation and bone resorption. An advantage of this method compared to in vivo studies is the absence of confounding effects (such as hormonal and mechanical influences) meaning a more direct effect of the test substances on bone tissue can be determined. Also compared to isolated cell systems, interrelationships between the different cell types in the bone and between these cells and the bone matrix are preserved.
# Briefly, hemi-calvariae were isolated from 4 day old Swiss Webster mice and incubated in media on steel mesh grids. The peptide of SEQ ID NO. […] Samples of the conditioned media were collected daily for analysis of PGE2 concentration (R&D Systems ELISA kit). At the end of the culture the bones were analyzed for new bone formation and number of osteoblasts using histology.
sequence,measurement,setting,value
TDLQERGDNDISPFSGDGQPFKD [SEQ ID No. 8],Biological activities relative to other sequences,[1],highest activities
same,COX-2 in human mesenchymal stem cells,[2],upregulated
same,COX-2 mRNA increase (summary in discussion),[3],~3 fold
same,COX-2 mRNA increase,[3]; 24 h,3.6 fold
same,COX-2 mRNA increase,[3]; 48 h,2.2 fold
same,BMP-2 induced PGE2 production,[4],increases
same,ALP activity increase as compared with BMP-2 treated cells without the peptide,[5]; 2 μM peptide with 25 ng/mL BMP-2,~2 times
same,ALP activity in osteoblastic cells,"[5]; BMP-2 25 ng/mL plus peptide 0.2-4.0 μM, dose dependent",significantly increased
same,PGE2 increase,[6],did not result in a significant increase
same,production of PGE2 in mouse calvaria organ culture assay,[7],dose dependently upregulated
same,Effect of the peptide on BMP-2 bone formation (size and mineral density of ectopic ossicles),"[8]; 3 μg BMP-2 in 30 mg polymer, peptide 50, 250 or 1250 μg, three weeks",significant enhancement
same,Bone formation when peptide added to suboptimal dose of rhBMP-2,"[8]; 3 μg rhBMP-2, varying amounts of peptide",significant and dose dependent increase
same,Efficacy of the peptide on bone formation (size and mineral density of ectopic ossicles),"[8]; 5 μg BMP-2 in 30 mg polymer, peptide 50, 250 or 1250 μg, three weeks",unclear
same,PGE2 production,[9],significant increases
same,bone cell density,[9]; histology,significant increases
same,osteoblast surface,[9]; histology,significant increases
same,parameters of new bone formation,[9]; histology,significant increases
